What was measured:
[1] = MDCK in vitro permeability assay (wild type MDCK cells, no inhibitor); type: in vitro ADME, Canine; conditions: dog, no Pgp inhibitor, apical to basolateral (A→B)
Method: (§1) Compounds were tested for permeability in an MDCK permeability assay. This assay measures the ability of compounds to cross a layer of Madin-Darby Canine Kidney (MDCK) cells from the apical to basolateral side (A→B). This measurement is predictive of the ability of compounds to be absorbed in the gut following oral dosing, an essential characteristic of an orally administered small molecule integrin inhibitor drug.
(§2) The assay is run in two formats. One uses wild type MDCK cells with no inhibitor. This method works well in determining the passive permeability of compounds with low efflux by P-glyocprotein (Pgp), and was used to assess permeability of a Reference Compound having the chemical formula shown below.
(§3) Cell Culture and Maintenance: • Cell stock cultures (MDCK or MDCK MDR1) are maintained in MEM+10% FBS+1% NEAA, grown in 75 cm^2 tissue culture treated flasks and split (passed) 2 times weekly to maintain desired confluence. • For maintenance passage: trypsinized cells are routinely distributed into new flasks at a standard passage ratio of 1:20.
(§4) Seeding assay plates: MDCK assay plates are seeded with MDCK or MDCK MCR1 cells 3-4 days prior to running the assay. 24-well plates are seeded at a cell density of 0.88×10^5/well in a 400 μL apical chamber volume (2.2×10^5/mL) with a […] volume of growth medium to the 24-well basal chamber. […]

[2] = system: Madin-Darby Canine Kidney (MDCK) cells; experiment: as above; type: in vitro ADME; conditions: no Pgp inhibitor, apical to basolateral (A→B)
Method: as §1, §2, §3, §4

O=C(O)CN1CCC(C(=O)N2CCC(c3ccc4c(n3)NCCC4)CC2)CC1 [Reference Compound]
Papp A→B at 90 min, 5 μM [1]: < 0.23 ×10⁻⁶ cm/s
MDCK (A->B) [2]: less than 0.23
